Like-named read-outs stand apart in the source and are kept apart here.

The conditions of series [1]: cited from earlier work.
A further series has as its system P. aeruginosa. To be noted: cited from earlier work.
In series [2] the test system is Gram-negative species and fungi. To be noted: cited from earlier work.
Another series relates to MRSA. To be noted: cited from earlier work.
The subject of another series is aquatic organisms. To be noted: according to PBT Profiler; cited from earlier work.
For series [3], the system named is Gram-positive bacteria, such as staphylococcus. To be noted: cited from earlier work.
A further series deals with E. coli. To be noted: cited from earlier work.
Another series deals with sediment microcosms. Briefly: Effect of TCC, TCS and BES on TCE dechlorination in sediment microcosms and cultures derived from them. To be noted: for effect on TCE reductive dechlorination in microcosms: addition of 20 μg/L TCC and TCS; for effect on TCE dechlorination rates in sediment-free cultures: cultures from microcosms amended with TCC, TCS, BES. Type of series: cell-based. Here is the method: In this study, microcosm is defined as: anaerobic airtight serum bottles with sediment samples, anaerobic medium, electron donor, and a chlorinated compound used as an electron acceptor. Four microcosms were set up in the anaerobic glove chamber with H2 concentration of 3% (Coy laboratory products Inc. Grass Lake, Mich.). Ten gram of homogeneously mixed sediment from either core A or core D were transferred independently into a 160 ml sterile serum bottle, and 90 ml anaerobic media with vitamin solution and 2 mM lactate were added. One hundred μL of 20 mg/L TCC stock solution in methanol and 100 μL of 20 mg/L TCS stock solution were added by pipette (Eppendorf, Calif.) to two of the four microcosms. Microcosms were capped with thick black butyl rubber stoppers and aluminum crimps. 4.5 μL pure TCE was injected with airtight syringe (Hamilton Company, Reno, Nev.) into each serum bottle. On day 130, in order to inhibit methane production in the sediment microcosms, 25 mM BES was added in to sediment-A microcosm and sediment-D microcosm with TCC and TCS with airtight syringe (Hamilton Company, Reno, Nev.). Microcosms were stored in the dark and incubated at 30° C.
Production of Sediment-Free Cultures. To establish sediment-free cultures from core A and core D sediment microcosms, the microcosms were shaken vigorously, and the solids were allowed to settle down. Then, using 1-inch, 21-gauge sterile needles, […] liquid (10 ml) were transferred into 89 ml sterile medium with the following contents: anaerobic medium, ATCC vitamin mix, and vitamin B12, in 160-ml serum bottles. Then, 1 ml each of 500-mM lactate stock solution and 35-μL TCE stock solution (1 mol/L in methanol) were added to form a 100 ml culture in 160-ml serum bottle. Three sediment cultures were derived from each sediment microcosm, and 12 sediment-free cultures were produced (FIG. 1). For organizational purposes, we refer to the sediment-free cultures generated from sediment-A microcosms as SCA and the sediment free cultures generated from sediment-D microcosms as DehaloR̂2, in the figures herein, the DehaloR̂2 are referred to as “SCD”. Thus, the term “SCD” and DehaloR̂2 are used interchangeably herein as the composition “SCD” was renamed “DehaloR̂2” during the course of investigation. The sediment-free cultures were kept in the dark and incubated at 30° C. After all the chlorinated electron acceptors were consumed, the cultures were re-spiked with TCE and electron donors.
BES (2-bromoethanesulfonate) is an efficient inhibitor for the metabolism of methanogens in methanogenetic cultures because it is a structural analog and competitive inhibitor of coenzyme M, which is only found in methanogens (Dimarco et al., 1990; Sparling and Daniels, 1987). Different concentrations of BES have been used by researchers. […] In this study, in order to determine if the cause for incomplete reductive dechlorination was competition for electron donor between methanogens and TCE dechlorinating microorganisms in the microcosms, I added 25 mM BES, 70 μmol of TCE, and 5 mM lactate into two sediment microcosms, sediment-A and sediment-D with TCC and TCS. In two other sediment microcosms, I added 70 μmol of TCE and 5 mM lactate without BES.

The test system of series [4] is algae, aquatic invertebrates and fish. To be noted: cited from earlier work.
The conditions of series [5]: continuous-flow activated sludge, 0.5 to 2 mg/L TCS (Stasinakis et al., 2007); cited from earlier work.
In another series the test system is Scenedesmus subspicatus. To be noted: cited from earlier work.
For another series, the system named is Rainbow trout. To be noted: in vivo; cited from earlier work.
Another series deals with North American bullfrog. To be noted: alters thyroid hormone-mediated postembryonic development; cited from earlier work.

With `O=C(Nc1ccc(Cl)cc1)Nc1ccc(Cl)c(Cl)c1` [TCC, 3-(4-chlorophenyl)-1-(3,4-dichlorphenyl) urea], the biodegradation is recorded as 60% in [1] (TCC 20 μg/L) and 70% in series [1] (TCC 2000 μg/L). In addition, the “biodegradation of the dichloroaniline ring” value in series [1] (bench scale CFAS system) is on record as 25.9%. Also, the “biodegradation of the p-chloroaniline ring” value in [1] (bench scale CFAS system) is given as 56%. Moreover, the “activity in MIC experiments” value in the series on P. aeruginosa is “not”; in the series on MRSA, “showed activity”; in the series on E. coli it was “not”. For the same compound, the “concentration needed to inhibit Gram-negative species and fungi” value in [2] is 1000 mg/L. The “concentration toxic to aquatic organisms” value with aquatic organisms is 90000 ng/mL. In addition, the “concentration that effectively inhibits Gram-positive bacteria” value in series [3] is 100 to 200 µg/L. Moreover, the “effect on TCE reductive dechlorination in microcosms” value with sediment microcosms was “can be neglected”. Moreover, the “effect on TCE dechlorination rates in sediment-free cultures” value in the series with sediment microcosms was “slow down TCE dechlorination rates”. Further, the “Predicted No Effect Concentration (PNEC)” value in series [4] was 0.146 µg/L. The “ratio of PEC/PNEC” value in series [4] is on record as 0.009 to 0.34.
For `Oc1cc(Cl)ccc1Oc1ccc(Cl)cc1Cl` [TCS, 5-chloro-2-[2,4-dichloro-phenoxy]-phenol], the “removed by biodegradation and sorption” value in series [5] is 90%. Further, in the series on Scenedesmus subspicatus, the “96-h effective concentration (EC50) for growth” value was 0.0014 µg/mL and the “96-h no-observed effect concentration (NOEC)” value was 0.69 µg/L. In the series on sediment microcosms, the “effect on TCE reductive dechlorination in microcosms” value was “can be neglected” and the “effect on TCE dechlorination rates in sediment-free cultures” value was “slow down TCE dechlorination rates”. In addition, in the series on Rainbow trout, the NOEC was 34 µg/L and the “median EC50” value is 0.35 µg/mL. Also, in the series with North American bullfrog, the “concentration acting as an endocrine disruptor” value was 0.15 ± 0.03 ng/mL.

The values above are taken from patent US20120178147A1, “MICROBIAL CULTURES AND METHODS FOR ANAEROBIC BIOREMEDIATION” (priority 2009, published 2012).
